Laboratory results from patent US20230407243A1, “GENETIC PLATFORM TO INVESTIGATE THE FUNCTIONS OF BACTERIAL DRUG EFFLUX PUMPS” (priority 2022, published 2023).

Legend:
Format in all cases: cell-based, Escherichia coli
EKO-35-Pore = assay: MIC susceptibility profiling, porinated strain; settings: for Fold changes of MICs: EKO-35-Pore compared to EKO-35-Pore (reference); for Minimum inhibitory concentration (MIC), Pore EKO-35: Table 10, with pore; for Minimum inhibitory concentration (MIC), Pore EKO-35 / Minimum inhibitory concentration, EKO-35-Pore: technical duplicate; for Minimum inhibitory concentration, EKO-35-Pore: Table 14A, porinated
Procedure, shortened: (§1)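 E. coli strains carrying a genomically integrated constitutive fhuA ΔC/Δ4L pore were grown 18 h in LB at 37 °C, then diluted 1/2000 in MHB II from OD600 ~1.0. Compounds were tested in duplicate, 2-fold serial titration, for 18 h at 37 °C with shaking. MIC came from OD600 with the pre-incubation background subtracted.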

ΔtolC-Pore = assay: microbe, parasite or virus in culture; settings: technical duplicate; for Minimum inhibitory concentration (MIC), Pore ΔtolC: Table 10, with pore; for Minimum inhibitory concentration, ΔtolC-Pore: Table 14A, porinated
Procedure, shortened: as §1

wild-type (WT) K-12-Pore = assay: microbe, parasite or virus in culture; settings: technical duplicate; for Minimum inhibitory concentration (MIC), Pore K-12: Table 10, with pore; for Minimum inhibitory concentration, K-12 (WT)-Pore: Table 14A, porinated
Procedure, shortened: as §1

EKO-35 araC::acrEF = assay: MIC susceptibility profiling, efflux platform; settings: for Fold change of MICs: EKO-35 araC::acrEF compared to EKO-35; for Minimum Inhibitory Concentration, EKO-35 araC::acrEF: Table 13A, non-porinated, technical duplicate
Procedure, shortened: (§2)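 MHB II broth microdilution; inoculum from 18 h LB culture, PBS-adjusted to OD600 ~1.0, then 1/2000 dilution. Compounds 2-fold titrated, duplicates, DMSO solvent control. 18 h, 37 °C, 900 rpm; background-corrected OD600 end point.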

EKO-35 araC::mdtBC = assay: MIC susceptibility profiling, efflux platform; settings: for Fold change of MICs: EKO-35 araC::mdtBC compared to EKO-35; for Minimum Inhibitory Concentration, EKO-35 araC::mdtBC: Table 13B, non-porinated, technical duplicate
Procedure, shortened: as §2

EKO-35 araC::acrD = assay: MIC susceptibility profiling, efflux platform; settings: for Fold change of MICs: EKO-35 araC::acrD compared to EKO-35; for Minimum Inhibitory Concentration, EKO-35 araC::acrD: Table 13A, non-porinated, technical duplicate
Procedure, shortened: as §2

EKO-35 araC::emrAB = assay: MIC susceptibility profiling, efflux platform; settings: for Fold change of MICs: EKO-35 araC::emrAB compared to EKO-35; for Minimum Inhibitory Concentration, EKO-35 araC::emrAB: Table 13B, non-porinated, technical duplicate
Procedure, shortened: as §2

EKO-35 araC::macAB = assay: MIC susceptibility profiling, efflux platform; settings: for Fold change of MICs: EKO-35 araC::macAB compared to EKO-35; for Minimum Inhibitory Concentration, EKO-35 araC::macAB: Table 13B, non-porinated, technical duplicate
Procedure, shortened: as §2

EKO-35 araC::emrKY = assay: MIC susceptibility profiling, efflux platform; settings: for Fold change of MICs: EKO-35 araC::emrKY compared to EKO-35; for Minimum Inhibitory Concentration, EKO-35 araC::emrKY: Table 13B, non-porinated, technical duplicate
Procedure, shortened: as §2

EKO-35 araC::mdtEF = assay: MIC susceptibility profiling, efflux platform; settings: for Fold change of MICs: EKO-35 araC::mdtEF compared to EKO-35; for Minimum Inhibitory Concentration, EKO-35 araC::mdtEF: Table 13A, non-porinated, technical duplicate
Procedure, shortened: as §2

[1] = tested on: EKO-35 araC::mexCD (MexCD from P. aeruginosa); assay: MIC susceptibility profiling, efflux platform; settings: for Fold change of MICs: EKO-35 araC::mexCD compared to EKO-35; for Minimum Inhibitory Concentration, EKO-35 araC::mexCD: Table 13B, non-porinated, technical duplicate
Procedure, shortened: as §2

EKO-35 araC::acrB = assay: MIC susceptibility profiling, efflux platform; settings: for Fold change of MICs: EKO-35 araC::acrB compared to EKO-35; for Minimum Inhibitory Concentration, EKO-35 araC::acrB: Table 13A, non-porinated, technical duplicate
Procedure, shortened: as §2

EKO-35 araC::acrBD408A = assay: MIC susceptibility profiling, efflux platform; settings: for Fold change of MICs: EKO-35 araC::acrBD408A compared to EKO-35; for Minimum Inhibitory Concentration, EKO-35 araC::acrBD408A: Table 13B, non-porinated, technical duplicate
Procedure, shortened: as §2

EKO-35 araC::emrAB Pore = assay: MIC susceptibility profiling, porinated efflux platform; settings: for Fold changes of MICs: EKO-35 araC::emrAB Pore compared to EKO-35-Pore; for Minimum inhibitory concentration: EKO-35 araC::emrAB Pore, technical duplicate
Procedure, shortened: as §1

[2] = tested on: EKO-35 araC::acrBD408A Pore; assay: as above; settings: for Minimum inhibitory concentration: EKO-35 araC::acrBD408A Pore, technical duplicate
Procedure, shortened: as §1

EKO-35 araC::acrB Pore = assay: as above; settings: for Fold changes of MICs: EKO-35 araC::acr-B Pore compared to EKO-35-Pore; for Minimum inhibitory concentration, EKO-35 araC::acrB Pore: Table 14A, porinated, technical duplicate
Procedure, shortened: as §1

EKO-35 araC::acrEF Pore = assay: as above; settings: for Minimum inhibitory concentration, EKO-35 araC::acrEF Pore: Table 14A, porinated, technical duplicate
Procedure, shortened: as §1

EKO-35 araC::acrD Pore = assay: as above; settings: for Fold changes of MICs: EKO-35 araC::acrD Pore compared to EKO-35-Pore; for Minimum inhibitory concentration, EKO-35 araC::acrD Pore: Table 14A, porinated, technical duplicate
Procedure, shortened: as §1

SMILES	Fold changes of MICs (EKO-35-Pore)	Minimum inhibitory concentration (MIC), Pore EKO-35 (EKO-35-Pore)	Minimum inhibitory concentration, EKO-35-Pore (EKO-35-Pore)	Minimum inhibitory concentration (MIC), Pore ΔtolC (ΔtolC-Pore)	Minimum inhibitory concentration, ΔtolC-Pore (ΔtolC-Pore)	Minimum inhibitory concentration (MIC), Pore K-12 (wild-type (WT) K-12-Pore)	Minimum inhibitory concentration, K-12 (WT)-Pore (wild-type (WT) K-12-Pore)	Fold change of MICs (EKO-35 araC::acrEF)	Minimum Inhibitory Concentration, EKO-35 araC::acrEF (EKO-35 araC::acrEF)	Fold change of MICs (EKO-35 araC::mdtBC)	Minimum Inhibitory Concentration, EKO-35 araC::mdtBC (EKO-35 araC::mdtBC)	Fold change of MICs (EKO-35 araC::acrD)	Minimum Inhibitory Concentration, EKO-35 araC::acrD (EKO-35 araC::acrD)	Fold change of MICs (EKO-35 araC::emrAB)	Minimum Inhibitory Concentration, EKO-35 araC::emrAB (EKO-35 araC::emrAB)	Fold change of MICs (EKO-35 araC::macAB)	Minimum Inhibitory Concentration, EKO-35 araC::macAB (EKO-35 araC::macAB)	Fold change of MICs (EKO-35 araC::emrKY)	Minimum Inhibitory Concentration, EKO-35 araC::emrKY (EKO-35 araC::emrKY)	Fold change of MICs (EKO-35 araC::mdtEF)	further results
O=C(Nc1ccccc1C(=O)Nc1nnc(C(F)(F)F)s1)c1ccccc1Cl [compound 19]	1 fold	320 µg/mL	320 µg/mL	0.625 µg/mL	0.625 µg/mL	320 µg/mL	320 µg/mL	1 fold	320 µg/mL	1 fold	320 µg/mL	1 fold	320 µg/mL	1 fold	320 µg/mL	1 fold	320 µg/mL	1 fold	320 µg/mL	1 fold	Minimum Inhibitory Concentration, EKO-35 araC::mdtEF (EKO-35 araC::mdtEF): 320 µg/mL; Fold change of MICs [1]: 1 fold; Minimum Inhibitory Concentration, EKO-35 araC::mexCD [1]: 320 µg/mL; Fold change of MICs (EKO-35 araC::acrB): 1 fold; Minimum Inhibitory Concentration, EKO-35 araC::acrB (EKO-35 araC::acrB): 320 µg/mL; Fold change of MICs (EKO-35 araC::acrBD408A): 1 fold; Minimum Inhibitory Concentration, EKO-35 araC::acrBD408A (EKO-35 araC::acrBD408A): 320 µg/mL; Fold changes of MICs (EKO-35 araC::emrAB Pore): 1 fold; Minimum inhibitory concentration (EKO-35 araC::emrAB Pore): 320 µg/mL; Minimum inhibitory concentration [2]: 320 µg/mL; Fold changes of MICs (EKO-35 araC::acrB Pore): 1 fold; Minimum inhibitory concentration, EKO-35 araC::acrB Pore (EKO-35 araC::acrB Pore): 320 µg/mL; Fold changes of MICs (EKO-35 araC::acrEF Pore; EKO-35 araC::acrEF Pore compared to EKO-35-Pore): 1 fold; Minimum inhibitory concentration, EKO-35 araC::acrEF Pore (EKO-35 araC::acrEF Pore): 320 µg/mL; Fold changes of MICs (EKO-35 araC::acrD Pore): 1 fold; Minimum inhibitory concentration, EKO-35 araC::acrD Pore (EKO-35 araC::acrD Pore): 320 µg/mL
O=C(NC(=O)N1CCc2c([nH]c3ccccc23)C1C(F)(F)F)c1ccccc1 (stereo not drawn) [compound 13]	1 fold	5 µg/mL	5 µg/mL	1.25 µg/mL	1.25 µg/mL	320 µg/mL	320 µg/mL	8 fold	320 µg/mL	1 fold	40 µg/mL	8 fold	320 µg/mL	8 fold	320 µg/mL	1 fold	40 µg/mL	1 fold	40 µg/mL	8 fold	Minimum Inhibitory Concentration, EKO-35 araC::mdtEF (EKO-35 araC::mdtEF): 320 µg/mL; Fold change of MICs [1]: 8 fold; Minimum Inhibitory Concentration, EKO-35 araC::mexCD [1]: 320 µg/mL; Fold change of MICs (EKO-35 araC::acrB): 8 fold; Minimum Inhibitory Concentration, EKO-35 araC::acrB (EKO-35 araC::acrB): 320 µg/mL; Fold change of MICs (EKO-35 araC::acrBD408A): 1 fold; Minimum Inhibitory Concentration, EKO-35 araC::acrBD408A (EKO-35 araC::acrBD408A): 40 µg/mL; Fold changes of MICs (EKO-35 araC::emrAB Pore): 2 fold; Minimum inhibitory concentration (EKO-35 araC::emrAB Pore): 10 µg/mL; Fold changes of MICs ([2]; EKO-35 araC::acrBD408A Pore compared to EKO-35-Pore): 1 fold; Minimum inhibitory concentration [2]: 5 µg/mL; Fold changes of MICs (EKO-35 araC::acrB Pore): 64 fold; Minimum inhibitory concentration, EKO-35 araC::acrB Pore (EKO-35 araC::acrB Pore): 320 µg/mL; Minimum inhibitory concentration, EKO-35 araC::acrEF Pore (EKO-35 araC::acrEF Pore): 20 µg/mL; Fold changes of MICs (EKO-35 araC::acrD Pore): 2 fold; Minimum inhibitory concentration, EKO-35 araC::acrD Pore (EKO-35 araC::acrD Pore): 10 µg/mL
